Data from patent US8491938B2, “Potent inhibitory effect of zinc in combination with sulforaphane on cancer cell growth” (University of Maryland, Baltimore, priority 2009, dated 2013).
Like-named read-outs stand apart in the source and are kept apart here. One block for each molecule: values may come before it.

How the values were obtained:
Format in all cases: cell-based, human
PC-3 cells [1] = experiment: MTT cell viability assay, PC-3 cells; details: for IC50: PC-3 cells, single agent, read-out: 50% inhibitory concentration (IC50); for IC50 / effect on growth inhibitory effect of zinc, SFN and their combination: MTT; for effect on growth inhibitory effect of zinc, SFN and their combination: PC-3, inhibitor 6 mM pretreatment
Experimental: Two human prostatic cell lines were used: a) HPR-1, a cell line derived from normal human prostate epithelial cells (kindly provided by Dr. C. K. Choo, University of Hong Kong, Hong Kong, China); and b) PC-3, a human malignant prostate cell line (ATCC, Rockville, Md.). HPR-1 cells were cultured in keratinocyte medium supplemented with epidermal growth factor (EGF) ([…]) and bovine pituitary extracts (25 mg/500 ml) (Gibco BRL, Life Technologies, Bethesda, Md.). PC-3 cells were cultured in RPMI-1640 medium with 5% or 10% of fetal bovine serum (FBS), respectively. All media were supplemented with penicillin/streptomycin (1 U/ml, Invitrogen), and the cells were maintained at 37° C. in a humidified incubator with 5% CO2. The passages of the cell lines were within the range of 5-40. Once the cell density reached 50-60% confluence, the growth media were replaced by fresh serum/supplement-free medium for 24 h to synchronize cell growth. The cells were then treated with or without zinc sulfate (concentrations as indicated in the legends) in fresh serum/supplement-free medium for 0, 1, 3, 6, 12, and 24 h, respectively.
(§1) Cell viability and proliferation were evaluated with the MTT assay. The cells were seeded at a density of 9×10^3 cells/well in a 96 well plate containing 100 μl culture medium/well. After attachment, cells were treated with or without zinc and/or SFN at various concentrations in serum/supplement free medium. After 24 h treatment, 10 μl MTT (5 mg/ml, sigma) was added into each well and incubated at 37° C. for 1 h. Then the medium was removed and 100 μl dimethyl sulfoxide (DMSO) was added to dissolve water-insoluble formazan crystals converted from water-soluble MTT by living cells. The color absorbency of formazan was detected at a wavelength of 540 nm using a microplate reader (Molecular Devices).
[formula] experiments were designed by a statistics-based method utilizing the maximal power design developed by Fang and Tan(2003, 2008) and the corresponding SynStat version 1.beta software (http://www.umgcc.org/research/biostat_software.htm), This method uses uniform measures maximizes the minimum power of the F-test to detect departures from the additive action of drugs. […] With the information from experiments of single agents, SynStat derived 21 mixtures of the two agents and 6 replicates at each mixture based on the pooled variations in single agent experiments, which have 80% statistical power to detect at least a 15% difference in viability between the predicted additive values and the observed values at a significance level of 5%. Then, cells are exposed to these 21 mixtures and the cytotoxicity of this combination is determined. Upon completion of the experiments, we use the F-statistic given by Tan et al. (2003) to test the hypothesis of the additive action of two agents and calculate the p-value of the F-test. If the p-value is greater than 0.05, we can accept the hypothesis of the additive action of two agents. Otherwise, we calculate the interaction index (τ), which is proposed by Berenbaum who adopted the Lowe additivity model (Berenbaum, 1977) where, for a given cytotoxic effect, xA and xB are the concentrations of zinc and SFN in the combination, and XA and XB are the concentrations of zinc and SFN respectively that achieve the same cytotoxic effect when given alone. A τ value of 1 indicates additivity; τ<1 indicates synergy, and τ>1 indicates antagonism.

[2] = test system: cytochrome c, pro-caspase 3 and PARP; experiment: Western blot of apoptosis proteins in PC-3 cells; details: PC-3, zinc 12.5 μM or SFN 12 μM alone, 24 h
Experimental: Total cellular proteins from the experimental samples were extracted by radioimmuno-precipitation assay (RIPA) lysis buffer (Upstate, Lake Placid, N.Y.) containing protease inhibitor (Roche Diagnostics Gmbh, Mannheim, Germany). The protein extracts (30 μg/lane) were applied to electrophoresis on an SDS-polyacrylamide gel, and then, a transferred poly(vinylidene fluoride) (PVDF) membrane (Millipore, Billerica, Mass.) was blocked in 5% nonfat dry milk in phosphate buffered saline (PBS) containing 0.05% Tween-20 (Sigma, St. Louis, Mo.) (PBST) for 1 hr at room temperature followed by the hybridization to the primary antibodies against PARP (BD pharmingen, San Jose, Calif.), caspase 3 (BD pharmingen, San Jose, Calif.), p-JNK and JNK1 (Santa Cruz, Calif.), pP38 and P38 (Cell Signaling Technology, Danvers, Mass.), ppERK1/2 (Sigma, St. Louis, Mo.), ERK1/2 (Cell Signaling Technology, Danvers, Mass.) at 4° C. overnight. After washing, the membranes were incubated with corresponding second antibodies. Beta-actin (Sigma, St. Louis, Mo.) and GAPDH (Cell Signaling Technology, Danvers, Mass.) were used as internal controls to monitor the sample loadings. […] The signals of targeted bands were scanned and quantified with an LKB Ultra Scan XL laser densitometer (Image Quant, Molecular Dynamics, Sunnyvale, Calif.). […]

MT1/2 [3] = experiment: Western blot of MT1/2 expression in PC-3 cells; details: zinc at 24 h, SFN and combination at 6 and 24 h
Experimental: (§2) Total cellular proteins from the experimental samples were extracted by radioimmuno-precipitation assay (RIPA) lysis buffer (Upstate, Lake Placid, N.Y.) containing protease inhibitor (Roche Diagnostics Gmbh, Mannheim, Germany). The protein extracts (30 μg/lane) were applied to electrophoresis on an SDS-polyacrylamide gel, and then, a transferred poly(vinylidene fluoride) (PVDF) membrane (Millipore, Billerica, Mass.) was blocked in 5% nonfat dry milk in phosphate buffered saline (PBS) containing 0.05% Tween-20 (Sigma, St. Louis, Mo.) (PBST) for 1 hr at room temperature followed by the hybridization to the primary antibodies against PARP (BD pharmingen, San Jose, Calif.), caspase 3 (BD pharmingen, San Jose, Calif.), p-JNK and JNK1 (Santa Cruz, Calif.), pP38 and P38 (Cell Signaling Technology, Danvers, Mass.), ppERK1/2 (Sigma, St. Louis, Mo.), ERK1/2 (Cell Signaling Technology, Danvers, Mass.) at 4° C. overnight. After washing, the membranes were incubated with corresponding second antibodies. Beta-actin (Sigma, St. Louis, Mo.) and GAPDH (Cell Signaling Technology, Danvers, Mass.) were used as internal controls to monitor the sample loadings. […] The signals of targeted bands were scanned and quantified with an LKB Ultra Scan XL laser densitometer (Image Quant, Molecular Dynamics, Sunnyvale, Calif.).

PC-3 cells [4] = experiment: ROS detection (carboxy-H2DCFDA, flow cytometry) in PC-3 cells; details: for increase of ROS levels: PC-3, SFN alone; for effect on ROS production induced by zinc, SFN or zinc/SFN combination / effect on surge of ROS induced by zinc/SFN combination: PC-3, inhibitor 6 mM; for effect on ROS production induced by zinc, SFN or zinc/SFN combination: 30 min pretreatment, 6 h and 24 h; for effect on surge of ROS induced by zinc/SFN combination: 24 h of treatment
Experimental: 5-(and-6)-carboxy-2 ′,7 ′-dichlorodihydrofluorescein diacetate (carboxy-H2DCFDA,) was used to determine the intracellular ROS levels of individual cells. In living cells, this compound is oxidized and converted to the 2′,7′-dichlorofluoroscein (DCF) that is highly fluorescent. In the experiments, PC-3 cells cultured on 12-well plates were incubated in serum-free medium containing zinc sulfate ([…])/SFN (12 μM). Thirty min prior to the completion of the time course, carboxy-H2DCFDA was added at a final concentration of 5 μM. Cells were then collected and washed once with PBS. The fluorescent intensity of DCF was assayed by FACScan (Becton Dickinson)[3].

PC-3 cells [5] = experiment: Mitochondrial membrane potential (MMP) detection, DiOC6(3)/PI flow cytometry, PC-3 cells; details: for effect on MMP versus control, single agent: PC-3, zinc alone or SFN 12 μM alone; for effect on MMP alteration induced by zinc/SFN: PC-3, pretreatment 30 min, treatment 24 h
Source text: Cell flow cytometric analysis with 3,3′-dihexyloxacarbocyanine iodide (DiOC6(3); Invitrogen, Carlsbad, Calif.) and propidium iodide (PI;BD Pharmingen, San Jose, Calif.) was used to evaluate MMP and apoptosis of the cells. The fluorescence dye DiOC6(3) is featured by its accumulation in the mitochondrial matrix, which is resulted from negative mitochondrial membrane potential within viable cells. Thus, the changes of fluorescence of DiOC6(3) reflect the MMP alteration of the cells. Another fluorescence dye PI is cell membrane impermeable and able to stain DNA once cell membrane integrity is damaged during apoptosis. In the experiments, after treatments, cells (2.5×10^5/ml) were incubated with 100 nM DiOC6(3) in PBS for 15 min at 37° C. Then the cells were washed in PBS once, followed by incubation with 2.5 μg/ml PI for additional 10 min at room temperature. The samples were subjected to cell flow cytometric analysis, and FACScan (Becton Dickinson) was used to analyze the fluorescence of DIOC6(3) and PI [2].

HPR-1 cells = experiment: MTT cell viability assay, HPR-1 cells
Experimental: as §1, with “Two human prostatic cell lines were used: a) HPR-1, a cell line derived from normal human prostate epithelial cells (kindly provided by Dr. C. K. Choo, University of Hong Kong, Hong Kong, China); and b) PC-3, a human malignant prostate cell line (ATCC, Rockville, Md.). HPR-1 cells were cultured in keratinocyte medium supplemented with epidermal growth factor (EGF) ([…]) and bovine pituitary extracts (25 mg/500 ml) (Gibco BRL, Life Technologies, Bethesda, Md.). […] The passages of the cell lines were within the range of 5-40. […] Cell” for “Cell”

p38 = experiment: Western blot of p38 activation in PC-3 cells; details: PC-3, 6 h treatment, versus control
Experimental: as §2

MT1/2 [6] = experiment: Western blot of MT1/2 expression in HPR-1 cells; details: zinc at 24 h, SFN at 6 h and 24 h
Experimental: as §2

- IC50 (PC-3 cells [1]; Homo sapiens, 24 h): 20.3 ± 0.8 µM
Structure (SMILES): C[S+]([O-])CCCCN=C=S (centres unmarked) [SFN, 1-Isothiocyanato-4-methylsulfinylbutane]
- apoptotic effect (cytochrome c, pro-caspase 3, PARP), single agent [2]: lack of cell responses
- MT1/2 protein levels (MT1/2 [3]): no effect or a slight inhibition
- increase of ROS levels (PC-3 cells [4]; late time points (12 to 24 h), first value): about 35%
- increase of ROS levels (PC-3 cells [4]; late time points (12 to 24 h), second value): ~55%
- effect on MMP versus control, single agent (PC-3 cells [5]): did not affect MMP at all
- HPR-1 cells still alive (plateau) (HPR-1 cells; SFN 25 μM and even higher, 24 h): 60%
- response of HPR-1 cells to lower concentration of SFN (HPR-1 cells; SFN <10 μM, 24 h): no response
- proliferation of HPR-1 cells (HPR-1 cells; SFN at the range of 10 to 25, 24 h, less effective than in PC-3 cells): inhibited in a dose-dependent pattern
- phosphorylation of p38 (p38): increased phosphorylation of p38
- MT1/2 protein levels (MT1/2 [6]): decreased expression of MT1/2

Structure (SMILES): CC(=O)N[C@@H](CS)C(=O)O [NAC, N-Acetyl Cysteine]
- effect on growth inhibitory effect of zinc, SFN and their combination (PC-3 cells [1]): concordantly abolished
- effect on ROS production induced by zinc, SFN or zinc/SFN combination (PC-3 cells [4]): significantly inhibited ROS production
- effect on surge of ROS induced by zinc/SFN combination (PC-3 cells [4]): completely abolished
- effect on MMP alteration induced by zinc/SFN (PC-3 cells [5]): completely prevented

Structure (SMILES): O=S(=O)([O-])[O-].[Zn+2] [zinc, zinc sulfate]
- IC50 (PC-3 cells [1]; 24 h): 16.2 ± 0.9 µM
- PC-3 cells that could survive (PC-3 cells [1]; zinc 30 μM, 24 h): less than 20%
- apoptotic effect (cytochrome c, pro-caspase 3, PARP), single agent [2]: lack of cell responses
- MT1/2 protein levels (MT1/2 [3]): significant induction
- increase of ROS level (PC-3 cells [4]; PC-3, zinc alone, late time points (12 to 24 h)): 40-50%
- effect on MMP versus control, single agent (PC-3 cells [5]): increase one fold
- HPR-1 cells still alive (HPR-1 cells; zinc 30 μM, 24 h): around 90%
- response of HPR-1 cells to zinc (HPR-1 cells; zinc alone at doses of the six selected combinations, 24 h): no response
- phosphorylation of p38 (p38): increased phosphorylation of p38
- MT1/2 protein levels (MT1/2 [6]): induce expression of MT1/2 significantly

Structure (SMILES): N[C@@H](CCC(=O)N[C@@H](CS)C(=O)NCC(=O)O)C(=O)O [GSH, reduced glutathionein]
- effect on growth inhibitory effect of zinc, SFN and their combination (PC-3 cells [1]): concordantly abolished
- effect on ROS production induced by zinc, SFN or zinc/SFN combination (PC-3 cells [4]): significantly inhibited ROS production
- effect on surge of ROS induced by zinc/SFN combination (PC-3 cells [4]): completely abolished
- effect on MMP alteration induced by zinc/SFN (PC-3 cells [5]): completely prevented
